Experimental findings from patent publication US20260124214A1, “HETEROCYCLIC COMPOUNDS FOR USE IN THE TREATMENT OF CANCER” (ARTIOS PHARMA LIMITED, priority 2021, published 2026) are described below.

Where a name gives a salt, the structure may show the parent alone.

The experiment addresses T1, Human Polθ polymerase domain (aa1820-2590) (Homo sapiens, UniProt O75417).
T1 construct: Human Polθ polymerase domain (aa1820-2590) was expressed in E. Coli; made in house; host or cells: E. coli
T1 sequence (O75417 1820-2590): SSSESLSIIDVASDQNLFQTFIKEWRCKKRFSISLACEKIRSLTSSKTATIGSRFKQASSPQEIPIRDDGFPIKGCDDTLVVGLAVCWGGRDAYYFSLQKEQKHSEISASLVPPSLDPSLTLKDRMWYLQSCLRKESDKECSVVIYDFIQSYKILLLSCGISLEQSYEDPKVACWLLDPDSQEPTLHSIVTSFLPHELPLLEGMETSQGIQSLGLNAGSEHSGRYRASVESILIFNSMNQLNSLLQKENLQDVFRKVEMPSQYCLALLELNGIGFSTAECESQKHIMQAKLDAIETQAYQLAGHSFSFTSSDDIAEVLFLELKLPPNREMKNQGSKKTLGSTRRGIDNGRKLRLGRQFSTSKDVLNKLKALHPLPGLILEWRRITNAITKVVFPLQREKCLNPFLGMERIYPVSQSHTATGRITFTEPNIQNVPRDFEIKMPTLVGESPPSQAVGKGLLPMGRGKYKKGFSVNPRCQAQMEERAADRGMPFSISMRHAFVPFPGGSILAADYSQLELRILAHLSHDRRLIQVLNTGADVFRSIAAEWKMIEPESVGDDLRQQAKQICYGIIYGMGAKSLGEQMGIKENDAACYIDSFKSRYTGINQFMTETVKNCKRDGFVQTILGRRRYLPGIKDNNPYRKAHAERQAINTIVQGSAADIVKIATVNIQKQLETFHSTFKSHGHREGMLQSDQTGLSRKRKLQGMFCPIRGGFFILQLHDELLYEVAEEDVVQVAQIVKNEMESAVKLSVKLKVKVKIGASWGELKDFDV
Kind of experiment: Polθ Polymerase Domain WT KI Assay (PicoGreen). The class given is biochemical. As to conditions: 100 nM DNA substrate, 0.156 nM Polθ, initial rates vs inhibitor concentration. On the procedure:
A PicoGreen assay was used to measure the KI values of reversible compounds that inhibit the activity of Polθ in vitro.
Human Polθ polymerase domain (aa1820-2590) was expressed in E. Coli, purified, aliquoted and stored at −80° C. until required. Polθ substrate was generated from a 1.2:1 mix of DNA II Short to DNA II Long to give a final concentration of […] substrate in annealing buffer (20 mM Tris pH 7.5, 50 mM NaCl). The substrate was heated in 50 mL aliquots to 95° C. in a heating block for 5 min before the heating block switched off, the reaction left to cool to rt and stored at −20° C. until required.
Assay measurements were performed with 1× buffer comprising 25 mM Tris pH 7.5, 12.5 mM NaCl, […], 5% (v/v) glycerol, 0.01% v/v Triton x-100, 0.1 mg/ml BSA, 1 mM DTT. […] 100 nL of 23×1:1.5-fold serial dilutions and a DMSO only control were dispensed using the Tecan dispenser into Greiner 384 well black low volume plates (product code 784076). DMSO concentration was maintained at 1% of the final assay volume by back filling with DMSO.
To stop the reaction, 5 μL of a solution containing 25 mM Tris-HCl PH 7.5 and 20 mM EDTA was added at […] (t=0, 15, 30, 60, 90, 120, 150, 180 mins) using the Tempest's time delay function. The plates were covered during the time course to prevent evaporation. After completing the assay, 5 μL of detection reagent (25 mM Tris-HCl pH 7.5 and 2.5% (v/v) PicoGreen) was dispensed into the wells using a Tempest liquid handler (Formulatrix) and plates subsequently read on the CLARIOstar Plus (BMG Labtech) using the default optical settings for fluorescein and the auto gain/focus settings.
All data analysis was carried out using GraphPad Prism V.8 (GraphPad Software Inc, San Diego, CA). Time course data for each inhibitor concentration were fitted to the linear regression model in GraphPad Prism. Any time points where the control (DMSO only) reaction was no longer linear were excluded from the analysis. The initial rates (slopes) obtained from the linear regression were then plotted against inhibitor concentration and fitted to an inhibitor vs. response variable slope (four parameter) model on GraphPad Prism to determine the KI values.

On to `Cc1cc(C(F)(F)F)cc(N2C(=O)C[C@@H]3CN(C[C@@H]4CCCCN4C)c4c(Cl)cccc4N(C)C(=O)[C@H]32)n1` (racemic) [Example 117b, (3aR,11aS)-6-Chloro-10-methyl-1-(6-methyl-4-(trifluoromethyl)pyridin-2-yl)-5-(((S/R)-1-methylpiperidin-2-yl)methyl)-1,3a,4,5,10,11a-hexahydro-2H-benzo[b]pyrrolo[2,3-f][1,4]diazocine-2,11(3H)-dione], for which the Ki (as a rule, a dissociation constant, usually derived from enzyme kinetics or from competition with a known ligand) came to 4.09 nM. The figure for `CNCCNCCN1C[C@H]2CC(=O)N(c3cc(C(F)(F)F)cc(C)n3)[C@@H]2C(=O)N(C)c2cccc(C)c21` [Example 17, (3aR,11aS)-6,10-Dimethyl-1-(6-methyl-4-(trifluoromethyl)pyridin-2-yl)-5-(2-((2-(methylamino)ethyl)amino)ethyl)-1,3a,4,5,10,11a-hexahydro-2H-benzo[b]pyrrolo[2,3-f][1,4]diazocine-2,11(3H)-dione] is 2.43 nM; for `Cc1cc(C(F)(F)F)cc(N2C(=O)C[C@@H]3CN(CC4CCCCN4C)c4c(Cl)cccc4N(C)C(=O)[C@H]32)n1` (single isomer, unassigned) [Example 117a] it is 3.37 nM. On to `Cc1cc(C(F)(F)F)cc(N2C(=O)C[C@@H]3CN(Cc4cn5c(n4)[C@H](C)N(C)CC5)c4c(Cl)cccc4N(C)C(=O)[C@H]32)n1` (racemic) [Example 96b, (3aR,11aS)-6-Chloro-5-(((S/R)-7,8-dimethyl-5,6,7,8-tetrahydroimidazo[1,2-a]pyrazin-2-yl)methyl)-10-methyl-1-(6-methyl-4-(trifluoromethyl)pyridin-2-yl)-1,3a,4,5,10,11a-hexahydro-2H-benzo[b]pyrrolo[2,3-f][1,4]diazocine-2,11(3H)-dione], for which the Ki turned out to be 1.66 nM. `Cc1cc(C(F)(F)F)cc(N2C(=O)C[C@@H]3CN(CCN4CCNCC4)c4c(C)cccc4N(C)C(=O)[C@H]32)n1` [Example 16, (3aR,11aS)-6,10-Dimethyl-1-(6-methyl-4-(trifluoromethyl)pyridin-2-yl)-5-(2-(piperazin-1-yl)ethyl)-1,3a,4,5,10,11a-hexahydro-2H-benzo[b]pyrrolo[2,3-f][1,4]diazocine-2,11(3H)-dione] yielded an inhibition constant Ki of 1.2 nM. As for `COCCN1CCN(CCN2C[C@H]3CC(=O)N(c4cc(C(F)(F)F)cc(C)n4)[C@@H]3C(=O)N(C)c3cccc(Cl)c32)CC1` [Example 27, (3aR,11aS)-6-Chloro-5-(2-(4-(2-methoxyethyl)piperazin-1-yl)ethyl)-10-methyl-1-(6-methyl-4-(trifluoromethyl)pyridin-2-yl)-1,3a,4,5,10,11a-hexahydro-2H-benzo[b]pyrrolo[2,3-f][1,4]diazocine-2,11(3H)-dione], the Ki was 1.33 nM. To `Cc1cc(C(F)(F)F)cc(N2C(=O)C[C@@H]3CN(CC4COCCN4)c4c(Cl)cccc4N(C)C(=O)[C@H]32)n1` (single isomer, unassigned) [Example 108b] belongs 1.55 nM; to `Cc1cc(C(F)(F)F)cc(N2C(=O)C[C@@H]3CN(C4CC(OCc5ccccc5)C4)c4c(F)cccc4N(C)C(=O)[C@H]32)n1` (single isomer, unassigned) [Example 92b], 14.7 nM; to `Cc1cc(C(F)(F)F)cc(N2C(=O)C[C@@H]3CN(CCN4CC[C@@H](C(=O)N(C)C)C4)c4c(C)cccc4N(C)C(=O)[C@H]32)n1` [Example 73, (R)-1-(2-((3aR,11aS)-6,10-Dimethyl-1-(6-methyl-4-(trifluoromethyl)pyridin-2-yl)-2,11-dioxo-1,2,3,3a,4,10,11,11a-octahydro-5H-benzo[b]pyrrolo[2,3-f][1,4]diazocin-5-yl)ethyl)-N,N-dimethylpyrrolidine-3-carboxamide], 8.12 nM. In the case of `Cc1cc(C(F)(F)F)cc(N2C(=O)C[C@@H]3CN(CC4CCN(C5COC5)CC4)c4c(Cl)cccc4N(C)C(=O)[C@H]32)n1` [Example 85, (3aR,11aS)-6-Chloro-10-methyl-1-(6-methyl-4-(trifluoromethyl)pyridin-2-yl)-5-((1-(oxetan-3-yl)piperidin-4-yl)methyl)-1,3a,4,5,10,11a-hexahydro-2H-benzo[b]pyrrolo[2,3-f][1,4]diazocine-2,11(3H)-dione], the affinity corresponds to a Ki of 0.622 nM.

In turn, `Cc1cc(C(F)(F)F)cc(N2C(=O)C[C@@H]3CN(CCCO)c4c(F)cccc4N(C)C(=O)[C@H]32)n1` [Example 127, (3aR,11aS)-6-Fluoro-5-(3-hydroxypropyl)-10-methyl-1-(6-methyl-4-(trifluoromethyl)pyridin-2-yl)-1,3a,4,5,10,11a-hexahydro-2H-benzo[b]pyrrolo[2,3-f][1,4]diazocine-2,11(3H)-dione] registered an inhibitory constant (Ki) of 7.21 nM.

For the compound `Cc1cc(C(F)(F)F)cc(N2C(=O)C[C@@H]3CN(CCN4CC[C@@H](O)C4)c4c(Cl)cccc4N(C)C(=O)[C@H]32)n1` [Example 31, (3aR,11aS)-6-Chloro-5-(2-((R)-3-hydroxypyrrolidin-1-yl)ethyl)-10-methyl-1-(6-methyl-4-(trifluoromethyl)pyridin-2-yl)-1,3a,4,5,10,11a-hexahydro-2H-benzo[b]pyrrolo[2,3-f][1,4]diazocine-2,11(3H)-dione], the affinity corresponds to a Ki of 2.62 nM. The figure for `Cc1cc(C(F)(F)F)cc(N2C(=O)C[C@@H]3CN(CCN4CCOCC4)c4c(C)cccc4N(C)C(=O)[C@H]32)n1` [Example 44, (3aR,11aS)-6,10-Dimethyl-1-(6-methyl-4-(trifluoromethyl)pyridin-2-yl)-5-(2-morpholinoethyl)-1,3a,4,5,10,11a-hexahydro-2H-benzo[b]pyrrolo[2,3-f][1,4]diazocine-2,11(3H)-dione] is 0.349 nM; for `Cc1cc(C(F)(F)F)cc(N2C(=O)C[C@@H]3CN(CCN4CC5CCC(C4)N5C)c4c(C)cccc4N(C)C(=O)[C@H]32)n1` [Example 60, (3aR,11aS)-6,10-Dimethyl-5-(2-(8-methyl-3,8-diazabicyclo[3.2.1]octan-3-yl)ethyl)-1-(6-methyl-4-(trifluoromethyl)pyridin-2-yl)-1,3a,4,5,10,11a-hexahydro-2H-benzo[b]pyrrolo[2,3-f][1,4]diazocine-2,11(3H)-dione dihydrochloride] it is 0.625 nM.

On to `Cc1cc(C(F)(F)F)cc(N2C(=O)C[C@@H]3CN(CCCN(C)C)c4c(Cl)cccc4N(C)C(=O)[C@H]32)n1` [Example 135, (3aR,11aS)-6-Chloro-5-(3-(dimethylamino)propyl)-10-methyl-1-(6-methyl-4-(trifluoromethyl)pyridin-2-yl)-1,3a,4,5,10,11a-hexahydro-2H-benzo[b]pyrrolo[2,3-f][1,4]diazocine-2,11(3H)-dione], for which the inhibition constant (Ki) amounted to 3.49 nM. To `Cc1cc(C(F)(F)F)cc(N2C(=O)C[C@@H]3CN(CC4CN(C)CCO4)c4c(Cl)cccc4N(C)C(=O)[C@H]32)n1` (single isomer, unassigned) [Example 120a, hydrochloride] belongs 1.39 nM.

`Cc1cc(C(F)(F)F)cc(N2C(=O)C[C@@H]3CN(c4ccc5ncn(C)c5c4)c4c(F)cccc4N(C)C(=O)[C@H]32)n1` [Example 144, (3aR,11aS)-6-Fluoro-10-methyl-5-(1-methyl-1H-benzo[d]imidazol-6-yl)-1-(6-methyl-4-(trifluoromethyl)pyridin-2-yl)-1,3a,4,5,10,11a-hexahydro-2H-benzo[b]pyrrolo[2,3-f][1,4]diazocine-2,11(3H)-dione] came in with an inhibition constant Ki of 28.8 nM.
